Results reported in article PMC10945809 (Proceedings of the National Academy of Sciences of the …, 2024).

Target: T1, human microsomal FMO1 (Homo sapiens, UniProt Q01740)
T1 sequence (Q01740 2-532): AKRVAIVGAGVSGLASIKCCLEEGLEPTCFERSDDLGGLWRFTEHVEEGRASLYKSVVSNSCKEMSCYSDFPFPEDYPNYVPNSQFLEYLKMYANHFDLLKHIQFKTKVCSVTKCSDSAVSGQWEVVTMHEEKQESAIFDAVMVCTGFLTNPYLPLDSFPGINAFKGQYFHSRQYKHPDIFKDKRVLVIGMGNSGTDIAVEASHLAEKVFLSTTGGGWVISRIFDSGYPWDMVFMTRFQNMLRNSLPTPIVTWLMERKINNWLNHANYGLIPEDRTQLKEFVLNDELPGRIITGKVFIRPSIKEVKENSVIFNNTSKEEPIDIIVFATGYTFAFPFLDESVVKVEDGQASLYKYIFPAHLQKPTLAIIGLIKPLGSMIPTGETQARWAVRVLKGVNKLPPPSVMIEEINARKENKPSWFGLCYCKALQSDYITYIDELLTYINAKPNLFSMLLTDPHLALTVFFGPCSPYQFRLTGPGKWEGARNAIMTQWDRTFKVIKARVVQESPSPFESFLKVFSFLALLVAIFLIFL
Assay: absorption spectrum
Assay type: biochemical
Conditions: PBS; microsomal FMO1 as positive control

Cc1cc2nc3c(=O)[nH]c(=O)nc-3n(C[C@H](O)[C@H](O)[C@H](O)COP(=O)(O)OP(=O)(O)OC[C@H]3O[C@@H](n4cnc5c(N)ncnc54)[C@H](O)[C@@H]3O)c2cc1C [FAD]
absorption spectrum: FAD bound to human microsomal FMO1 (orange)
